The text below walks through data of patent US20240279223A1, “5-OXO-PYRIDO[2,3-D]PYRIDAZIN-6(5H)-YL ACETAMIDES” (JANSSEN PHARMACEUTICA NV, priority 2021, published 2024).

For orientation: IC50 means the concentration needed to halve the response being measured. A high value points to lower potency. A word on the EC50: it is the concentration at which the effect is half-maximal.

One experiment concerns IL-1β. As to the kind of experiment: PBMC assay: IL-1β release after LPS stimulation. Type of experiment: cell-based. Particulars: human PBMCs, 30 min preincubation, 100 ng/ml LPS for 6 hrs, supernatant, MSD technology. As to the method: (§1) Peripheral venous blood was collected from healthy individuals and human peripheral blood mononuclear cells (PBMCs) were isolated from blood by Ficoll-Histopaque (Sigma-Aldrich, A0561) density gradient centrifugation. After isolation, PBMCs were stored in liquid nitrogen for later use. Upon thawing, PBMC cell viability was determined in growth medium (RPMI media supplemented with 10% fetal bovine serum, 1% Pen-Strep and 1% L-glutamine). Compounds were spotted in a 1:3 serial dilution in DMSO and diluted to the final concentration in 30 μl medium in 96 well plates (Falcon, 353072). PBMCs were added at a density of 7.5×10^4 cells per well and incubated for 30 min in a 5% CO2 incubator at 37° C. LPS stimulation was performed by addition of 100 ng/ml LPS (final concentration, Invivogen, tirl-smlps) for 6 hrs followed by collection of cellular supernatant and the analysis of IL-1β (μM) and TNF cytokines levels (μM) via MSD technology according to manufacturers' guidelines (MSD, K 151A0H).
(§2) The IC50 values (for IL-1β) and EC50 values (TNF) were obtained on compounds of the invention/examples, and are depicted in the following table: […]

The next experiment has as its system TNF. As to the kind of experiment: PBMC assay: TNF cytokine levels after LPS stimulation. Format: cell-based. Particulars: human PBMCs, 30 min preincubation, 100 ng/ml LPS for 6 hrs, supernatant, MSD technology. As to the method: as §1, §2

With `CCc1nn(CC(=O)N[C@H]2C[C@@](C)(O)C2)c(=O)c2ccc(C(C)C)nc12` [Compound 1], the IC50 with IL-1β (Homo sapiens, PBMC) was found to be 520 nM. In the experiment on TNF (Homo sapiens, PBMC), the EC50 turned out to be 10600 nM.

In the experiment on IL-1β (Homo sapiens, PBMC), `CCc1nn(CC(=O)Nc2ccncn2)c(=O)c2ccc(C(C)C)nc12` [Compound 2] returned an IC50 of 1490 nM. The same compound gave an EC50 with TNF (Homo sapiens, PBMC) above 20000 nM.

`CCc1nn(CC(=O)Nc2ccncn2)c(=O)c2ccc(C3CC3)nc12` [Compound 3] returned an IC50 in the experiment with IL-1β (Homo sapiens, PBMC) of 4490 nM. In the experiment on TNF (Homo sapiens, PBMC), the EC50 was above 20000 nM.

`CCc1nn(CC(=O)N[C@H]2C[C@@](C)(O)C2)c(=O)c2ccc(C3CC3)nc12` [Compound 4] came in with an IC50 in the experiment with IL-1β (Homo sapiens, PBMC) of 370 nM.

Consider `CCc1nn(CC(=O)Nc2ccc3nncn3c2)c(=O)c2ccc(C3CC3)nc12` [Compound 5], for which, in the experiment on IL-1β (Homo sapiens, PBMC), half-maximal inhibition (IC50) required 320 nM. In addition, the concentration giving a half-maximal response (EC50) in the experiment on TNF (Homo sapiens, PBMC) worked out at 12900 nM.

For `CCc1ccc2c(=O)n(CC(=O)N[C@H]3C[C@@](C)(O)C3)nc(CC)c2n1` [Compound 6], the IC50 in the experiment with IL-1β (Homo sapiens, PBMC) came to 780 nM. In the experiment with TNF (Homo sapiens, PBMC), the EC50 was determined as 17800 nM.

In the experiment on IL-1β (Homo sapiens, PBMC), `CCc1nn(CC(=O)Nc2ccc3nncn3c2)c(=O)c2ccc(OC)nc12` [Compound 7] had an IC50 of 6770 nM. In addition, the EC50 with TNF (Homo sapiens, PBMC) was above 20000 nM.

Regarding `CC(C)c1nn(CC(=O)Nc2ccc3nncn3c2)c(=O)c2ccc(C(C)(F)F)nc12` [Compound 8], the midpoint of inhibition in the experiment on IL-1β (Homo sapiens, PBMC), the IC50, lay at 120 nM. The same compound returned an EC50 with TNF (Homo sapiens, PBMC) of 17000 nM.

The compound `CN(C)c1nn(CC(=O)Nc2ccc3nncn3c2)c(=O)c2ccc(C(F)(F)F)nc12` [Compound 9] gave an IC50 in the experiment with IL-1β (Homo sapiens, PBMC) of 320 nM. Also, in the experiment with TNF (Homo sapiens, PBMC), the EC50 was above 20000 nM.

`CN(C)c1nn(CC(=O)Nc2ccc3nncn3c2)c(=O)c2ccc(C(C)(F)F)nc12` [Compound 10] registered an IC50 with IL-1β (Homo sapiens, PBMC) of 300 nM. The EC50 with TNF (Homo sapiens, PBMC) was above 20000 nM.

`CC(C)c1nn(CC(=O)Nc2ccc3cnn(C(=O)OC(C)(C)C)c3c2)c(=O)c2ccc(C(F)(F)F)nc12` [Compound 11, tert-butyl 6-(2-(8-isopropyl-5-oxo-2-(trifluoromethyl)pyrido[2,3-d]pyridazin-6(5H)-yl)acetamido)-1H-indazole-1-carboxylate] returned a half-maximal inhibitory concentration (IC50) with IL-1β (Homo sapiens, PBMC) of 520 nM. The same compound yielded an EC50 in the experiment with TNF (Homo sapiens, PBMC) above 20000 nM.

In turn, `CC(C)c1nn(CC(=O)NC2CCOCC2)c(=O)c2ccc(C(F)(F)F)nc12` [Compound 12] registered an IC50 with IL-1β (Homo sapiens, PBMC) of 780 nM. In the experiment on TNF (Homo sapiens, PBMC), this compound showed a concentration giving a half-maximal response (EC50) above 20000 nM.

`CC(C)c1nn(CC(=O)Nc2ccc3nncn3c2)c(=O)c2ccc(C(F)(F)F)nc12` [Compound 13]: the IC50 with IL-1β (Homo sapiens, PBMC) came out at 100 nM. Also, the EC50 in the experiment with TNF (Homo sapiens, PBMC) was above 20000 nM.

As for `CC(C)c1nn(CC(=O)N[C@H]2C[C@@](C)(O)C2)c(=O)c2ccc(C(F)(F)F)nc12` [Compound 14], the midpoint of inhibition in the experiment with IL-1β (Homo sapiens, PBMC), the IC50, lay at 50 nM. Also, the EC50 in the experiment on TNF (Homo sapiens, PBMC) is above 20000 nM.

In the experiment with IL-1β (Homo sapiens, PBMC), `CC(C)c1nn(CC(=O)Nc2ccc3nccn3c2)c(=O)c2ccc(C(F)(F)F)nc12` [Compound 15] yielded an IC50 of 390 nM. The EC50 in the experiment on TNF (Homo sapiens, PBMC) is above 20000 nM.

Consider `CC(C)c1nn(CC(=O)Nc2ccc(=O)n(C)c2)c(=O)c2ccc(C(F)(F)F)nc12` [Compound 16], for which the IC50 in the experiment on IL-1β (Homo sapiens, PBMC) was determined as 330 nM. In the experiment on TNF (Homo sapiens, PBMC), this compound came in with an EC50 above 20000 nM.

Compound `Cc1cc(NC(=O)Cn2nc(C(C)C)c3nc(C(F)(F)F)ccc3c2=O)ccn1` [Compound 17] had an IC50 in the experiment with IL-1β (Homo sapiens, PBMC) of 480 nM. In the experiment with TNF (Homo sapiens, PBMC), this compound gave a concentration for a half-maximal effect (EC50) of 16600 nM.

In turn, `CC(C)c1nn(CC(=O)Nc2ccnnc2)c(=O)c2ccc(C(F)(F)F)nc12` [Compound 18] came in with an IC50 in the experiment with IL-1β (Homo sapiens, PBMC) of 410 nM. The response in the experiment on TNF (Homo sapiens, PBMC) was half-maximal at 12600 nM (EC50).

Take `CC(C)c1nn(CC(=O)Nc2cncnc2)c(=O)c2ccc(C(F)(F)F)nc12` [Compound 19]: the IC50 in the experiment with IL-1β (Homo sapiens, PBMC) worked out at 60 nM. This compound yielded an EC50 in the experiment on TNF (Homo sapiens, PBMC) of 11800 nM.

In turn, `CC(C)c1nn(CC(=O)Nc2ccc3nncn3n2)c(=O)c2ccc(C(F)(F)F)nc12` [Compound 20, N-([1,2,4]triazolo[4,3-b]pyridazin-6-yl)-2-(8-isopropyl-5-oxo-2-(trifluoromethyl)pyrido[2,3-d]pyridazin-6(5H)-yl)acetamide] yielded an IC50 in the experiment on IL-1β (Homo sapiens, PBMC) of 2930 nM. Besides, in the experiment with TNF (Homo sapiens, PBMC), the EC50 was above 20000 nM.

On to `CC(C)c1nn(CC(=O)Nc2ccc3nncn3n2)c(=O)c2ccc(C(C)(F)F)nc12` [Compound 21], for which the IC50 in the experiment on IL-1β (Homo sapiens, PBMC) is 70 nM. Further, the EC50 in the experiment with TNF (Homo sapiens, PBMC) was 2870 nM.

The compound `CN(C)c1nn(CC(=O)Nc2ccc3nncn3n2)c(=O)c2ccc(C(F)(F)F)nc12` [Compound 22] came in with an IC50 in the experiment with IL-1β of 150 nM. In the experiment with TNF, this compound registered an EC50 of 5860 nM.

As to `CN(C)c1nn(CC(=O)Nc2ccc3nncn3n2)c(=O)c2ccc(C(F)(F)F)nc12` [Compound 23], half-maximal inhibition in the experiment with IL-1β (IC50) was put at 340 nM. The EC50 with TNF was above 20000 nM.

Regarding `CN(C)c1nn(CC(=O)Nc2ccc3nncn3n2)c(=O)c2ccc(C(C)(F)F)nc12` [Compound 24], the IC50 in the experiment on IL-1β came out at 300 nM. In the experiment with TNF (Homo sapiens, PBMC), this compound showed an EC50 above 20000 nM.

With `CN(C)c1nn(CC(=O)Nc2ccc3nncn3n2)c(=O)c2ccc(C(C)(F)F)nc12` [Compound 25], the IC50 in the experiment with IL-1β worked out at 750 nM. The EC50 in the experiment with TNF is above 20000 nM.

Compound `CC(C)c1nn(CC(=O)Nc2ccc3cn[nH]c3c2)c(=O)c2ccc(C(F)(F)F)nc12` [Compound 26, N-(1H-indazol-6-yl)-2-(8-isopropyl-5-oxo-2-(trifluoromethyl)pyrido[2,3-d]pyridazin-6(5H)-yl)acetamide] gave an IC50 in the experiment with IL-1β (Homo sapiens, PBMC) of 170 nM. Further, the EC50 in the experiment with TNF (Homo sapiens, PBMC) was above 20000 nM.
